Experimental data from patent publication US20130150399A1, “INHIBITORS OF THE UNFOLDED PROTEIN RESPONSE AND METHODS FOR THEIR USE” (The Board of Trustees of the Leland Stanford Junior …, priority 2006, published 2013).

Key:
RPMI 8226 myeloma cells = assay: Cell proliferation assay, RPMI 8226; assay type: cell-based, human; settings: dose-dependent
[1] = tested on: HT1080 tet-off Flag-XBP-1s cells; assay: Colony formation of HT1080 tet-off Flag-XBP-1s cells under hypoxia; assay type: cell-based, human; settings: 2.5 μM, hypoxia 48 hours
Experimental: A. Effect of irestatin 9389 on PERK and ATF6 pathways. HT1080 cells were treated with vehicle alone (lanes 1-4) or 2.5 μM irestatin 9389 (lanes 5-8) and cultured under aerobic conditions for 18 hours (N) or shifted to hypoxia for the indicated times. Protein lysates were analyzed by Western blot analysis using antisera specific for ATF6 (top), CHOP/GADD153 (middle) or actin (bottom). Arrow indicates the cleaved, transcriptionally active form of ATF6. B. Cleavage of caspase-3 in irestatin-treated cells under hypoxia. HT1080 cells were cultured in normoxia (N) or under hypoxia for 36 hours (H 36) in absence or presence of irestatin 9389 (2.5 μM). Arrows indicate proteolytically cleaved caspase-3. C. Colony formation assay. HT1080 cells were treated as in B under normoxia (N) or hypoxia for 48 hours (H 48). Cells were harvested, counted, and allowed to grow under normal culture conditions for 11-12 days. Colonies were visualized with crystal violet staining. D. Quantification of clonogenic survival assay. Values represent the mean+/−SEM from at least 4 independent experiments. E. TUNEL staining of cells treated as in C. F. Quantification of TUNEL-positive cells. Values represent the mean+/− SEM from at least 3 experiments. […] Cells were harvested at the indicated times and counted by hemocytometer. Values represent the mean calculated from triplicate experiments+/−SEM. […]

Cc1csc(NC(=O)CSc2nc3c(c(C(F)(F)F)c2C#N)CCC3)n1 [Compound 9389]
growth of RPMI 8226 (RPMI 8226 myeloma cells): strongly inhibited the growth | decrease in viability ([1]; dox present (no Flag-XBP-1s)): ~60 fold | survival of hypoxic cells expressing Flag-XBP-1s ([1]; no dox): minimal effect on the survival
